Data: patent US20220118117A1, “MODULATORS OF METABOTROPIC GLUTAMATE RECEPTOR 4” (The General Hospital Corporation, priority 2019, published 2022)

Key:
[1] = ex vivo biodistribution of [18F]15; assay type: in vivo, Sprague Dawley rats; settings: rat, iv
Description: Ex vivo Studies of Biodistribution. For biodistribution studies the normal male Sprague Dawley rats were anesthetized with isoflurane/nitrous oxide (1-1.5% isoflurane) to install catheter into the tail vain for administration of radioactivity ([^18F]15, 22±3 MBq, iv). Total of 15 rats in deep anesthesia (isoflurane 4% and cervical dislocation) were sacrificed in a group of three at five different time points (5, 10, 20, 30, and 60 min) after injection of [^18F]15. Major organs including lung, heart, liver, spleen, kidney, muscle, midbrain, cortex, cerebellum and blood were harvested to determine radioactivity. The tissue samples were weighted, and the radioactivity was measured with the standard samples of [^18F]15 using Wizard2 2480, Perkin Elmer, Calif. Radioactivity of the tissue samples was determined as percent of the injected activity per gram of the tissue.

[2] = PET imaging of [18F]15, baseline; assay type: in vivo, Sprague Dawley rats
Description: PET Imaging of [^18F]15 in Rats. Altogether 24 normal male Sprague Dawley rats were used for the imaging studies comprising 15 baseline studies and 15 blocking studies. Rats were anaesthetized with isoflurane/nitrous oxide (1.0-1.5% isoflurane, with oxygen flow of 1-1.5 L/min), and catheter was installed into tail vein for the administration of [^18F]15. Dynamic volumetric PET data was acquired with a PET-CT scanner for 60 min (Triumph-II, Tri-Foil Imaging, Northridge, Calif.). The vital signals such as heart rate and respiration rate were monitored during scanning period. PET data acquisition was started immediately after administration of radioactivity with the dose range of 18-34 MBq depending on the size of the rat followed by CT imaging to obtain anatomical information and data for attenuation correction of PET data. PET data was processed by using maximum-likelihood expectation-maximization (MLEM) algorithm with 30 iterations to dynamic volumetric images, and corrected for uniformity, scatter, and attenuation. The CT data was processed by the modified Feldkamp algorithm using matrix volumes of 512×512×512 and pixel size of […]. Co-registration of CT and PET images and analysis of PET images were carried out using PMOD3.2 software (PMOD Technology, Zurich, Switzerland).

- accumulation in brain ([1]; at 10 min): 0.41±0.18 % ID/g
- accumulation in heart ([1]; at 20 min): 0.50±0.08 % ID/g
- accumulation in liver ([1]; at 20 min): 1.33±0.12 % ID/g
- accumulation in lungs ([1]; at 20 min): 0.58±0.17 % ID/g
- accumulation in kidneys ([1]; at 30 min): 0.93±0.57 % ID/g
- BBB crossing ([2]; PET, rat brain): crosses BBB
- time of highest accumulation in the thalamus ([2]; after administration of the ligand): about 2 min
- maximum average uptake in the thalamus ([2]; time interval of 1-10 min after administering): 1.77±0.26 % ID/cc
Structure (SMILES): [2H]C([2H])([18F])Sc1cc(NC(=O)c2ccccn2)ccc1Cl [[^18F]15]
